Structures can show the parent of a compound that is named as a salt.
System: HCT116
Settings: 72 h
Summary of the method: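 IC50 and maximal efficacy were derived from four-parameter Hill curve fits. The underlying CellTiter-Glo luminescence was scaled so that vehicle equals 0% and positive control equals -100%, and was then pattern-corrected. HCT116 cells had been seeded in 1536-well plates at 250 per well.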

| Structure (SMILES) | IC50 cell viability (ICRF193 0 nM) [µM] | IC50 cell viability (ICRF193 200 nM) [µM] |
| --- | --- | --- |
| CCC(=O)O[C@]1(C(=O)COC)[C@@H](C)C[C@H]2[C@@H]3CCC4=CC(=O)C=C[C@]4(C)[C@@]3(F)[C@@H](O)C[C@@]21C [Amelometasone] | > 45.8 | > 45.8 |
| COc1cc(N)cn[n+]1-c1ccccc1 [Amezinium methylsulfate] | > 45.8 | > 45.8 |
| Nc1c(CC(=O)O)cccc1C(=O)c1ccccc1 [Amfenac Sodium] | > 45.8 | > 45.8 |
| COC(=O)c1cc(Cl)ccc1NS(=O)(=O)C(F)(F)F [Amidoflumet] | > 45.8 | > 45.8 |
| NCCCNCCSP(=O)(O)O [Amifostine] | > 45.8 | > 45.8 |
| NCC[C@H](O)C(=O)N[C@@H]1C[C@H](N)[C@@H](O[C@H]2O[C@H](CN)[C@@H](O)[C@H](O)[C@H]2O)[C@H](O)[C@H]1O[C@H]1O[C@H](CO)[C@@H](O)[C@H](N)[C@H]1O [Amikacin] | > 45.8 | > 45.8 |
| N=C(N)NC(=O)c1nc(Cl)c(N)nc1N [Amiloride] | > 45.8 | > 45.8 |
| COc1ccc(/C=C/C(=O)OCCC(C)C)cc1 [Amiloxate] | > 45.8 | > 45.8 |
| NCCCCCC(=O)O [Aminocaproic acid] | > 45.8 | > 45.8 |
| CCC1(c2ccc(N)cc2)CCC(=O)NC1=O (stereo unspecified) [Aminoglutethimide] | > 45.8 | > 45.8 |
| Nc1ccc(C(=O)NCC(=O)O)cc1 [Aminohippuric acid] | > 45.8 | > 45.8 |
| NCC(=O)CCC(=O)O [Aminolevulinic acid hydrochloride] | > 45.8 | > 45.8 |
| CC(CC(C(N)=O)(c1ccccc1)c1ccccc1)N(C)C (stereo unspecified) [Aminopentamide sulfate] | > 45.8 | > 45.8 |
| CCN1CCCC1CNC(=O)c1cc(S(=O)(=O)CC)c(N)cc1OC (stereo unspecified) [Amisulpride] | > 45.8 | > 45.8 |
| Cc1ccc(/N=C/N(C)/C=N/c2ccc(C)cc2C)c(C)c1 [Amitraz] | > 45.8 | > 45.8 |
| CC(C)c1ccc2oc3nc(N)c(C(=O)O)cc3c(=O)c2c1 [Amlexanox] | > 45.8 | > 45.8 |
| CC1(C)[C@@H](O[C@H]2O[C@H](C(=O)O)[C@@H](O)[C@H](O)[C@H]2O[C@@H]2O[C@H](C(=O)O)[C@@H](O)[C@H](O)[C@H]2O)CC[C@]2(C)[C@H]3C(=O)C=C4[C@@H]5C[C@@](C)(C(=O)O)CC[C@]5(C)CC[C@@]4(C)[C@]3(C)CC[C@@H]12 [Ammonium Glycyrrhizinate] | > 45.8 | > 45.8 |
| CCC(C)(C)OC(=O)N[C@@H](Cc1c[nH]c2ccccc12)C(=O)N[C@@H](CCSC)C(=O)N[C@@H](CC(=O)O)C(=O)N[C@@H](Cc1ccccc1)C(N)=O [Amogastrin] | > 45.8 | > 45.8 |
| CCC(C)(C)c1ccc(CC(C)CN2C[C@@H](C)O[C@@H](C)C2)cc1 (stereo partly specified) [Amorolfine hydrochloride] | > 45.8 | > 45.8 |
| Clc1ccc2c(c1)C(N1CCNCC1)=Nc1ccccc1O2 [Amoxapine] | > 45.8 | > 45.8 |

| Structure (SMILES) | IC50 cell viability (ICRF193 0 nM) [µM] | IC50 cell viability (ICRF193 200 nM) [µM] |
| --- | --- | --- |
| CC1(C)S[C@@H]2[C@H](NC(=O)[C@H](N)c3ccc(O)cc3)C(=O)N2[C@H]1C(=O)O [Amoxicillin sodium] | > 45.8 | > 45.8 |
| C[C@@H]1[C@H](O)[C@@H](C)/C=C/C=C/C=C/C=C/C=C/C=C/C=C/[C@H](O[C@@H]2O[C@H](C)[C@@H](O)[C@H](N)[C@@H]2O)C[C@@H]2O[C@](O)(C[C@@H](O)C[C@@H](O)[C@H](O)CC[C@@H](O)C[C@@H](O)CC(=O)O[C@H]1C)C[C@H](O)[C@H]2C(=O)O [Amphotericin B] | > 45.8 | > 45.8 |
| CCOC(=O)OC(C)OC1=C(C(=O)Nc2ccccn2)N(C)S(=O)(=O)c2ccccc21 (stereo unspecified) [Ampiroxicam] | > 45.8 | > 45.8 |
| CC(C)CN(C[C@@H](O)[C@H](Cc1ccccc1)NC(=O)O[C@H]1CCOC1)S(=O)(=O)c1ccc(N)cc1 [Amprenavir] | > 45.8 | > 45.8 |
| CCCc1ncc(C[n+]2ccccc2C)c(N)n1 [Amprolium hydrochloride] | > 45.8 | > 45.8 |
| Nc1cc(-c2ccncc2)c[nH]c1=O [Amrinone] | > 45.8 | > 45.8 |
| CCCCCc1ccc(C)cc1O [Amylmetacresol] | > 45.8 | > 45.8 |
| C[N+]1(CC2COC(c3ccccc3)(c3ccccc3)O2)CCCCC1 (stereo unspecified) [Anacolin] | > 45.8 | > 45.8 |
| O=C1CN2Cc3c(ccc(Cl)c3Cl)N=C2N1 [Anagrelide hydrochloride] | > 45.8 | > 45.8 |
| CC(C)(C#N)c1cc(Cn2cncn2)cc(C(C)(C)C#N)c1 [Anastrozole] | > 45.8 | > 45.8 |
| C[C@]12CCC(=O)C[C@@H]1CC[C@@H]1[C@@H]2CC[C@]2(C)C=CC[C@@H]12 [Androstenone] | > 45.8 | > 45.8 |
| COc1ccc(-c2cc(=S)ss2)cc1 [Anethole trithione] | > 45.8 | > 45.8 |
| C/C=C/c1ccc(OC)cc1 [Anethole] | > 45.8 | > 45.8 |
| CCCCCOc1ccc(-c2ccc(-c3ccc(C(=O)N[C@H]4C[C@@H](O)[C@@H](O)NC(=O)[C@@H]5[C@@H](O)[C@@H](C)CN5C(=O)[C@H]([C@@H](C)O)NC(=O)[C@H]([C@H](O)[C@@H](O)c5ccc(O)cc5)NC(=O)[C@@H]5C[C@@H](O)CN5C(=O)[C@H]([C@@H](C)O)NC4=O)cc3)cc2)cc1 [Anidulafungin] | > 45.8 | > 45.8 |
| CCOC(=O)C1(c2ccccc2)CCN(CCc2ccc(N)cc2)CC1 [Anileridine] | > 45.8 | > 45.8 |
| COc1ccc(C(=O)N2CCCC2=O)cc1 [Aniracetam] | > 45.8 | > 45.8 |
| COc1ccc(C2C(=O)c3ccccc3C2=O)cc1 [Anisindione] | > 45.8 | > 45.8 |
| CCCC(CCC)C(=O)O[C@H]1C[C@H]2CC[C@@H](C1)[N+]2(C)C [Anisotropine methylbromide] | > 45.8 | > 45.8 |
| c1ccc(CN(CC2=NCCN2)c2ccccc2)cc1 [Antazoline hydrochloride] | > 45.8 | > 45.8 |
| O=C1c2c(O)cccc2Cc2cccc(O)c21 [Anthralin] | > 45.8 | > 45.8 |

| Structure (SMILES) | IC50 cell viability (ICRF193 0 nM) [µM] | IC50 cell viability (ICRF193 200 nM) [µM] |
| --- | --- | --- |
| O=C1c2ccccc2C(=O)c2ccccc21 [Anthraquinone] | > 45.8 | > 45.8 |
| Cc1nnc2n1-c1sc(CCC(=O)N3CCOCC3)cc1C(c1ccccc1Cl)=NC2 [Apafant] | > 45.8 | > 45.8 |
| COc1ccc(-n2nc(C(N)=O)c3c2C(=O)N(c2ccc(N4CCCCC4=O)cc2)CC3)cc1 [Apixaban] | > 45.8 | > 45.8 |
| NNc1nncc2ccccc12 [Apresoline] | > 45.8 | > 45.8 |
| CCN(CC)CCCN(c1ccccc1)C1Cc2ccccc2C1 [Aprindine hydrochloride] | > 45.8 | > 45.8 |
| OC[C@H]1O[C@@H](Oc2ccc(O)cc2)[C@H](O)[C@@H](O)[C@@H]1O [Arbutin] | > 45.8 | > 45.8 |
| CC1CNc2c(cccc2S(=O)(=O)N[C@@H](CCCNC(=N)N)C(=O)N2CC[C@@H](C)C[C@@H]2C(=O)O)C1 (stereo partly specified) [Argatroban] | > 45.8 | > 45.8 |
| CC(C)(C)NCC(O)CSc1nc(-c2ccc(C(N)=O)s2)cs1 (stereo unspecified) [Arotinolol hydrochloride] | > 45.8 | > 45.8 |
| CO[C@H]1O[C@@H]2O[C@@]3(C)CC[C@H]4[C@H](C)CC[C@@H]([C@H]1C)[C@@]24OO3 [Artemether] | > 45.8 | > 45.8 |
| CCCNC(C)C(=O)Nc1c(C)csc1C(=O)OC (stereo unspecified) [Articaine hydrochloride] | > 45.8 | > 45.8 |
| CN1CC2c3ccccc3Oc3ccc(Cl)cc3C2C1 (stereo unspecified) [Asenapine] | > 45.8 | > 45.8 |
| CC(=O)Oc1ccccc1C(=O)O [Aspirin] | > 45.8 | > 45.8 |
| CNC(=O)C[C@@H](N)C(=O)N[C@@H](C(=O)N[C@@H]1C(=O)N2[C@@H]1SC(C)(C)[C@@H]2C(=O)O)c1ccc(O)cc1 [Aspoxicillin] | > 45.8 | > 45.8 |
| CO[C@H]1[C@@H](O)[C@H](N)[C@@H](O[C@H]2O[C@H]([C@H](C)N)CC[C@H]2N)[C@H](O)[C@@H]1N(C)C(=O)CN [Astromicin] | > 45.8 | > 45.8 |
| COC(=O)N[C@H](C(=O)N[C@@H](Cc1ccccc1)[C@@H](O)CN(Cc1ccc(-c2ccccn2)cc1)NC(=O)[C@@H](NC(=O)OC)C(C)(C)C)C(C)(C)C [Atazanavir] | > 45.8 | > 45.8 |
| CCOc1ccc(C[C@H]2NC(=O)CCSSC[C@@H](C(=O)N3CCC[C@H]3C(=O)N[C@@H](CCCN)C(=O)NCC(N)=O)NC(=O)[C@H](CC(N)=O)NC(=O)[C@H]([C@@H](C)O)NC(=O)[C@H]([C@@H](C)CC)NC2=O)cc1 [Atosiban] | > 45.8 | > 45.8 |
| COc1ccc(CC2c3cc(OC)c(OC)cc3CC[N+]2(C)CCC(=O)OCCCCCOC(=O)CC[N+]2(C)CCc3cc(OC)c(OC)cc3C2Cc2ccc(OC)c(OC)c2)cc1OC (stereo unspecified) [Atracurium besylate] | > 45.8 | > 45.8 |
| COc1ccc([C@@H]2CC(=O)c3c(O)cc(O[C@@H]4O[C@H](CO[C@@H]5O[C@@H](C)[C@H](O)[C@@H](O)[C@H]5O)[C@@H](O)[C@H](O)[C@H]4O)cc3O2)cc1O [Aurantiamarin (Methyl Hesperidin)] | > 45.8 | > 45.8 |

Reference: the supplement of paper PMC12137928
